Where “and” joins values, the source holds several entries; their conditions need not be identical. Equal entries are not always repeated.
Test: molar heat capacity at constant pressure
Conditions: 101.33 kPa, Crystal 1, Small (less than 1 g) adiabatic calorimetry

O=P([O-])([O-])[O-].[Cs+].[Mg+2] [caesium-magnesium monophosphate]
Conditions	molar heat capacity at constant pressure
292.8 K	121 J/K/mol
294.9 K	121.5 J/K/mol
297 K	121.9 J/K/mol
298.15 K	122.1 J/K/mol
298.84 K	122.3 J/K/mol
300 K	122.6 J/K/mol
300.7 K	122.7 J/K/mol
303.3 K	123.3 J/K/mol
305.9 K	123.9 J/K/mol
308 K	124.4 J/K/mol
310 K	124.8 J/K/mol
310.1 K	124.8 J/K/mol
312.4 K	125.4 J/K/mol
314.7 K	125.9 J/K/mol
316.4 K	126.2 J/K/mol
318 K	126.5 J/K/mol
320 K	127 J/K/mol
321.1 K	127.2 J/K/mol
324.2 K	128 J/K/mol
325.3 K	128.2 J/K/mol
326.4 K	128.5 J/K/mol
329.66 K	129.1 J/K/mol
330 K	129.2 J/K/mol
330.5 K	128.9 J/K/mol
332.91 K	129.7 J/K/mol
333.99 K	129.9 J/K/mol
334.4 K	129.7 J/K/mol
335.08 K	130.1 J/K/mol
338.2 K	130.6 J/K/mol
338.3 K	130.5 J/K/mol
340 K	131 J/K/mol
341.8 K	131.2 J/K/mol
342.2 K	131.4 J/K/mol
343.4 K	131.5 J/K/mol
345.83 K	132 J/K/mol
346.1 K	132.2 J/K/mol
348.25 K	132.5 J/K/mol
350 K	133 J/K/mol and 132.7 J/K/mol
350.05 K	132.7 J/K/mol
351.85 K	133 J/K/mol
353.9 K	133 J/K/mol
357.8 K	133.9 J/K/mol
360 K	135 J/K/mol
361.7 K	134.7 J/K/mol
365.5 K	135.5 J/K/mol
369.2 K	136.4 J/K/mol
370 K	136 J/K/mol
372.9 K	136.4 J/K/mol
376.6 K	137.2 J/K/mol
380 K	138 J/K/mol
380.2 K	138 J/K/mol
383.7 K	138 J/K/mol
387.2 K	138.9 J/K/mol
390 K	140 J/K/mol
390.7 K	139.7 J/K/mol
394.2 K	140.5 J/K/mol
397.7 K	140.5 J/K/mol
400 K	141 J/K/mol
401.3 K	141.3 J/K/mol
404.8 K	141.3 J/K/mol
408.5 K	142.2 J/K/mol
410 K	142 J/K/mol
412.1 K	143 J/K/mol
415.8 K	143 J/K/mol
419.6 K	143.8 J/K/mol
420 K	144 J/K/mol
423.3 K	144.7 J/K/mol
427 K	145.5 J/K/mol
430 K	146 J/K/mol
430.6 K	145.5 J/K/mol
434.3 K	146.3 J/K/mol
437.9 K	146.3 J/K/mol
440 K	147 J/K/mol
441.6 K	147.2 J/K/mol
445.2 K	148 J/K/mol
448.8 K	148 J/K/mol
450 K	148 J/K/mol
452.5 K	148.8 J/K/mol
456.1 K	148.8 J/K/mol
459.8 K	149.7 J/K/mol
460 K	150 J/K/mol
463.4 K	150.5 J/K/mol
467.1 K	150.5 J/K/mol
470 K	151 J/K/mol
470.7 K	151.3 J/K/mol
474.4 K	151.3 J/K/mol
478.1 K	152.2 J/K/mol
480 K	152 J/K/mol
481.8 K	152.2 J/K/mol
485.4 K	153 J/K/mol
489.1 K	153.8 J/K/mol
490 K	154 J/K/mol
492.7 K	153.8 J/K/mol
496.4 K	154.6 J/K/mol
500 K	154.6 J/K/mol and 155 J/K/mol
503.7 K	155.5 J/K/mol
507.3 K	155.5 J/K/mol
510 K	156 J/K/mol
511 K	156.3 J/K/mol
514.6 K	156.3 J/K/mol
518.3 K	157.1 J/K/mol
520 K	157 J/K/mol
521.8 K	157.1 J/K/mol
525.4 K	158 J/K/mol
529 K	158 J/K/mol
530 K	159 J/K/mol
532.6 K	158.8 J/K/mol
536.1 K	158.8 J/K/mol
539.8 K	159.6 J/K/mol
540 K	160 J/K/mol
543.3 K	159.6 J/K/mol
546.9 K	160.5 J/K/mol
550 K	160 J/K/mol
550.5 K	160.5 J/K/mol
554.1 K	161.3 J/K/mol
557.7 K	161.3 J/K/mol
560 K	162 J/K/mol
561.4 K	162.1 J/K/mol
565 K	162.1 J/K/mol
568.7 K	163 J/K/mol
570 K	163 J/K/mol
572.4 K	163 J/K/mol
576.1 K	163.8 J/K/mol
579.8 K	163.8 J/K/mol
580 K	164 J/K/mol
583.4 K	164.6 J/K/mol
587.1 K	164.6 J/K/mol
590 K	165 J/K/mol
590.7 K	165.5 J/K/mol
594.3 K	165.5 J/K/mol
597.9 K	166.3 J/K/mol
600 K	166 J/K/mol
603.4 K	166.3 J/K/mol
607 K	167.1 J/K/mol
610 K	167 J/K/mol
610.6 K	167.1 J/K/mol
614.2 K	168 J/K/mol
617.7 K	168 J/K/mol
620 K	168 J/K/mol
621.4 K	168 J/K/mol
625 K	168.8 J/K/mol
628.6 K	168.8 J/K/mol
630 K	169 J/K/mol
632.3 K	169.6 J/K/mol
636 K	169.6 J/K/mol
639.7 K	170.4 J/K/mol
640 K	170 J/K/mol
643.3 K	170.4 J/K/mol
648.9 K	171.3 J/K/mol
650 K	171 J/K/mol

— the NIST ThermoML archive (doi:10.1016/j.jct.2007.11.001)
